Measured values as given in ChEMBL document CHEMBL4418495, “Entpd5 inhibitors” (2012).
Active and inactive are the calls of the source. The rule behind the calls is not given here.

Legend:
[1] = molecular target: T1, Nucleoside diphosphate phosphatase ENTPD5 (Homo sapiens) (UniProt O75356); assay: Inhibition of human recombinant ENTPD5 expressed in insect cells assessed as reduction in UDP hydrolysis at 1 uM incubated for 1 hr in presence of UMP, GTP and ATP by Escherichia coli UMP kinase pyrH catalyzed UMP phosphorylation coupled luciferase assay
T1 sequence (whole entry): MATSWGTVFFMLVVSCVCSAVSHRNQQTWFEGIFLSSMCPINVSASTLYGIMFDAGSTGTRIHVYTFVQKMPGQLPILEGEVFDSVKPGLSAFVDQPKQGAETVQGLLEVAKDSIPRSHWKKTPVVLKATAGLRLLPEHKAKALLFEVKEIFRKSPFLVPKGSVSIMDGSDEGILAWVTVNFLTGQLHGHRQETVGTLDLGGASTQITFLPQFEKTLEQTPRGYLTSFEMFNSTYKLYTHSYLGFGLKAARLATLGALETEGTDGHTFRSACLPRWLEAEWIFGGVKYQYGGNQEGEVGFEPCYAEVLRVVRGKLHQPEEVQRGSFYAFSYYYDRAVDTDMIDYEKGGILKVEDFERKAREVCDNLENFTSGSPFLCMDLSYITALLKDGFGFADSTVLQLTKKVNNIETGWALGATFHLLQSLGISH

[2] = molecular target: T1, Nucleoside diphosphate phosphatase ENTPD5 (Homo sapiens); assay: Inhibition of human recombinant ENTPD5 expressed in insect cells assessed as reduction in UDP hydrolysis up to 10 uM incubated for 1 hr in presence of UMP, GTP and ATP by Escherichia coli UMP kinase pyrH catalyzed UMP phosphorylation coupled luciferase assay
[3] = molecular target: T2, Uridylate kinase (Escherichia coli (strain K12)) (UniProt P0A7E9); assay: Inhibition of recombinant Escherichia coli UMP kinase pyrH catalyzed UMP phosphorylation in presence of GTP and ATP incubated for 1 hr by luminescence based assay
T2 sequence (whole entry): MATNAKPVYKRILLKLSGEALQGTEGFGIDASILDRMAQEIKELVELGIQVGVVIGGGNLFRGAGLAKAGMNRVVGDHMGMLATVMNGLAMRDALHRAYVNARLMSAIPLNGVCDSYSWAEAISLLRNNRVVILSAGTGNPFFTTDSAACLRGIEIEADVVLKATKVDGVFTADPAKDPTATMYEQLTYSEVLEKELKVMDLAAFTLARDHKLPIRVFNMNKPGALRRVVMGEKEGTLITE

[4] = molecular target: T1, Nucleoside diphosphate phosphatase ENTPD5 (Homo sapiens); assay: Inhibition of human recombinant ENTPD5 expressed in insect cells assessed as reduction in reduction in UDP hydrolysis by measuring inorganic phosphate release incubated for 1 hr by malachite green based assay

Row | Structure (SMILES) | inhibition [1] | inhibition [2] | inhibition [3] | inhibition [4]
1 | COc1cccc(OCCn2cc(/C=C3/C(=N)N4N=C(C(C)C)SC4=NC3=O)c3ccccc32)c1 | Active | Dose-dependent effect | inactive | Active
2 | O=C1C=CC(=O)c2c1ccc1c2ccc2ccccc21 | Active | Dose-dependent effect | inactive | Active
3 | CCc1ccc(NC2=NC(=O)/C(=C/c3cc(Cl)c(OCC(=O)O)c(Cl)c3)S2)cc1 | Active | Dose-dependent effect | inactive | Active
4 | O=C1NC(=S)N(c2ccc(Cl)cc2)C(=O)/C1=C\c1ccc(-c2ccccc2C(=O)O)o1 | Active | Dose-dependent effect | inactive | Active
5 | COc1cccc(C(c2cc(C(C)(C)C)c(O)c(C(C)(C)C)c2)N2CCOCC2)c1OC (configuration not stated) | Active | Dose-dependent effect | inactive | Active
6 | NC1=C/C(=C2\Nc3cc(N)ccc3S2)C(=O)C=C1 | Active | Dose-dependent effect | inactive | Active
7 | Cc1ccc2ncc(C(CC(=O)N3CCN(C(c4ccccc4)c4ccccc4)CC3)c3ccc4c(c3)OCO4)n2c1 (configuration not stated) | Active | Dose-dependent effect | inactive | Active
8 | N#CC1=C(N)n2c(s/c(=C\c3cc(Br)ccc3O)c2=O)=C(C#N)C1c1cc(Br)ccc1O (configuration not stated) | Active | Dose-dependent effect | inactive | Active
9 | Cc1cc(/C=C2\C(=O)NC(=S)N(c3cccc(Cl)c3)C2=O)c(C)n1-c1ccc(Br)cc1 | Active | Dose-dependent effect | inactive | Active
10 | O=C1Nc2ccc(Br)cc2/C1=C1/SC(=S)N(c2ccc(Cl)cc2)C1=O | Active | Dose-dependent effect | inactive | Active
11 | C=CCN(CC(=O)N(Cc1ccc2c(c1)OCO2)Cc1coc2ccc(Cl)cc2c1=O)C(=O)c1cccc2ccccc12 | Active | Dose-dependent effect | inactive | Active
12 | CN(C)c1ccc(/C=C(\NC(=O)c2cccc(F)c2)C(=O)N/N=C/c2cc(Cl)cc([N+](=O)[O-])c2O)cc1 | Active | Dose-dependent effect | inactive | Active
13 | O=C1NC(=O)N(c2ccc(Cl)cc2)C(=O)/C1=C/c1cnn(-c2ccccc2)c1 | Active | Dose-dependent effect | inactive | Active
14 | O=C1/C(=C/c2cc([N+](=O)[O-])cc(Br)c2O)SC(=S)N1c1ccc([N+](=O)[O-])cc1 | Active | Dose-dependent effect | inactive | Active
15 | CC(=O)c1ccc(-c2ccc(/C=C3\C(=O)NC(=S)N(c4ccc(Br)cc4)C3=O)o2)cc1 | Active | Dose-dependent effect | inactive | Active
16 | O=c1cc(-c2ccco2)nc(-c2ccco2)o1 | Active | Dose-dependent effect | inactive | Active
17 | O=C1NC(=O)N(c2ccc(Br)cc2)C(=O)/C1=C/c1c[nH]c2ccccc12 | Active | Dose-dependent effect | inactive | Active
18 | Cc1ccnc(NC(c2ccc3cccnc3c2O)c2sccc2C)c1 (configuration not stated) | Active | Dose-dependent effect | inactive | Active
19 | CCCCCCCCCCCCCCCC[N+](C)(C)CCN(Cc1ccc(OC)cc1)c1ncccn1 | Active | Dose-dependent effect | inactive | Active

Row | Structure (SMILES) | inhibition [1] | inhibition [2] | inhibition [3] | inhibition [4]
20 | COc1cccc(/C=c2/sc3n(c2=O)C(c2cccs2)C2=C(N=3)c3ccccc3CC2)c1O (configuration not stated) | Active | Dose-dependent effect | inactive | Active
21 | Cc1ccc(-c2cc(C(F)(F)F)c3c(N)c(C(=O)c4ccc5c(c4)OCO5)sc3c2)s1 | Active | Dose-dependent effect | inactive | Active
22 | COc1ccc([C@@H]2Nc3ccc(Br)cc3[C@@H]3C=CC[C@@H]32)cc1[N+](=O)[O-] | Active | Dose-dependent effect | inactive | Active
23 | NC(=O)c1cc2cc(Br)ccc2o/c1=N\c1cc(C(F)(F)F)ccc1N1CCCCC1 | Active | Dose-dependent effect | inactive | Active
24 | O=C1C=Cc2ccccc2/C1=C/NNC(=O)C(O)(c1ccccc1)c1ccccc1 | Active | Dose-dependent effect | inactive | Active
25 | CC(C)(C)C(=O)Nc1ccc(C(=O)Nc2ccc(-c3nc4ncccc4o3)cc2)cc1 | Active | Dose-dependent effect | inactive | Active
26 | O=[N+]([O-])c1cccc(C2C3CC=CC3c3cc([N+](=O)[O-])cc4c3N2CC2CC=CC42)c1 (configuration not stated) | Active | Dose-dependent effect | inactive | Active
27 | O=C1/C(=C/c2ccc(O)c(O)c2)SC(=S)N1c1ccc([N+](=O)[O-])cc1 | Active | Dose-dependent effect | inactive | Active
28 | O=C1NC(=O)N(c2ccc(Cl)cc2)C(=O)/C1=C/c1cccn1-c1ccccc1 | Active | Dose-dependent effect | inactive | Active
29 | CCOc1cc(/C=C2\SC(=S)NC2=O)cc(Br)c1OCc1cccc2ccccc12 | Active | Dose-dependent effect | inactive | Active
30 | COc1cccc(NC(=S)Nc2ccc3nc(-c4ccco4)c(-c4ccco4)nc3c2)c1 | Active | Dose-dependent effect | inactive | Active
31 | O=S(=O)(c1ccc2ccccc2c1)N(CCc1csc2nc(-c3ccc4ccccc4c3)cn12)Cc1ccco1 | Active | Dose-dependent effect | inactive | Active
32 | O=C1NC(=S)N(c2ccc(Br)cc2)C(=O)/C1=C/c1ccc(-c2ccc(F)cc2)o1 | Active | Dose-dependent effect | inactive | Active
33 | O=C(O)C1=CC(C(c2ccc(O)c(C(=O)O)c2)c2ccc(O)c(C(=O)O)c2)C=CC1=O (configuration not stated) | Active | Dose-dependent effect | inactive | Active
34 | CC1=C(C(=O)OC(C)C)C(c2cn(-c3ccccc3)nc2-c2ccc(Cl)cc2)C(C(=O)OC(C)C)=C(C)N1 | Active | Dose-dependent effect | inactive | Active
35 | COc1ccc(N2C(=O)/C(=C/c3cccn3-c3ccc(Br)cc3)C(=O)NC2=S)cc1 | Active | Dose-dependent effect | inactive | Active
36 | Cc1ccc(-c2ccc(C=C3C(=O)NC(=O)NC3=O)o2)c(Br)c1 | Active | Dose-dependent effect | inactive | Active
37 | Nc1nc(SCc2nnc(Nc3ccccc3)s2)nc2sc3c(c12)CCC3 | Active | Dose-dependent effect | inactive | Active
38 | CCN(CC)c1ccc(C(Nc2ccccn2)c2ccc3cccnc3c2O)cc1 (configuration not stated) | Active | Dose-dependent effect | inactive | Active
